We go through three molecules from ChEMBL document CHEMBL1146241, “Novel inhibitor for fibroblast growth factor receptor tyrosine kinase” (Bioorg Med Chem Lett, 2007).

In assay [1] the target is T1, Fibroblast growth factor receptor 1 (Homo sapiens, UniProt P11362). As to the kind of experiment: Inhibition of human FGFR1 kinase expressed in insect cell by HTRF detection method. On the technique in general: TR-FRET usually uses a lanthanide donor and a delayed reading to cut background.
Target sequence in this assay (P11362 whole entry): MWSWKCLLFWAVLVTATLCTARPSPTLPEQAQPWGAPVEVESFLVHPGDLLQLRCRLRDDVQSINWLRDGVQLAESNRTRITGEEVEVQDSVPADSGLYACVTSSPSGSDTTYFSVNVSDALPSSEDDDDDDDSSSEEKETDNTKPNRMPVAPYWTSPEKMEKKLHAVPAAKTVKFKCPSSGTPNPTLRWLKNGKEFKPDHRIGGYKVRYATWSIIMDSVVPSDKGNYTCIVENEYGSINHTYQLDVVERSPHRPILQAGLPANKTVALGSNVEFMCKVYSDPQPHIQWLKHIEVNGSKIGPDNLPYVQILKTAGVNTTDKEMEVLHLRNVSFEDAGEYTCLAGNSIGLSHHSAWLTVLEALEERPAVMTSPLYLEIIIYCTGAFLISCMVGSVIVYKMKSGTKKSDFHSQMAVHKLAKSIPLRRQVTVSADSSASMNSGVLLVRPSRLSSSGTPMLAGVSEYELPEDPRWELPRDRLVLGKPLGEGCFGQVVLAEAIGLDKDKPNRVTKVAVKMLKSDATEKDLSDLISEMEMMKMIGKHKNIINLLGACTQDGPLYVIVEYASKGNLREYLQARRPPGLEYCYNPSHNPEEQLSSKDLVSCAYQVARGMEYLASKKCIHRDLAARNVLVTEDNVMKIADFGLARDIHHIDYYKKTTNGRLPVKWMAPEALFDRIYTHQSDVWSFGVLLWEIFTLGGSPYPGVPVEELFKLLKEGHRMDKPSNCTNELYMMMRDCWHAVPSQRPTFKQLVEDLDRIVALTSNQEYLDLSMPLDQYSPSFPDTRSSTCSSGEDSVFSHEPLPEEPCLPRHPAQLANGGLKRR
The target in assay [2] is T1, Fibroblast growth factor receptor 1. The conditions noted are these: HUVEC.
Target sequence in this assay (P11362 22-822 limits assumed): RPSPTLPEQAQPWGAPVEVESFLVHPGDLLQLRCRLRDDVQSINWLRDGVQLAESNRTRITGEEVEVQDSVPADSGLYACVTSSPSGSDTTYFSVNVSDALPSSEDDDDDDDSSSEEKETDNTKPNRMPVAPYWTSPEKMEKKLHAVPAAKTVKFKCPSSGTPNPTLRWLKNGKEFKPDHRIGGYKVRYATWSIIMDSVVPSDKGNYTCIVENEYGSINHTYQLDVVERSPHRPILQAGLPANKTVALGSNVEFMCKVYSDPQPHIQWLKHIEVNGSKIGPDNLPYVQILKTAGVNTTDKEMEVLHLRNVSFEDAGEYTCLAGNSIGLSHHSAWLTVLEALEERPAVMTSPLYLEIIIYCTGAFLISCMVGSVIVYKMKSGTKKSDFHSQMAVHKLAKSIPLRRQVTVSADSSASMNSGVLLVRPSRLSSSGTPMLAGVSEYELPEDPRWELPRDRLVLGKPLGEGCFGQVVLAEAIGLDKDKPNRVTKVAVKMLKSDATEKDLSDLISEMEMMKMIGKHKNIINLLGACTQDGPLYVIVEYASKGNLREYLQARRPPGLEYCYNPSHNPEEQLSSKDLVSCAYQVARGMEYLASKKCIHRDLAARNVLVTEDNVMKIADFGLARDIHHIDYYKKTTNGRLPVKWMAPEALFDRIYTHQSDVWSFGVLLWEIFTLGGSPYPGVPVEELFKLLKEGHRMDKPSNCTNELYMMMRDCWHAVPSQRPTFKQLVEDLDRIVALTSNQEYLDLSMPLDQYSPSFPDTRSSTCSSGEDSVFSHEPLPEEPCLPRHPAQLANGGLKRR
Description: Inhibition of rhFGF2-induced cellular proliferation of HUVEC

Each structure is given as a SMILES string.

As for `COc1cc(OC)cc(-c2ccc3c(c2)NC(=O)/C3=C\c2[nH]c(C)c(CCC(=O)O)c2C)c1`, the half-maximal inhibitory concentration (IC50) – broadly, the point on the concentration scale where inhibition reaches its midpoint – in assay [1] came out at 400 nM. Also, the MEC in assay [2] was found to be 0.4 µM.

For the molecule `COc1cccc(-c2ccc3c(c2)NC(=O)/C3=C\c2[nH]c(C)c(CCC(=O)O)c2C)c1`, the IC50 in assay [1] was 1200 nM. Besides, the MEC in assay [2] was found to be 0.4 µM.

As to `Cc1[nH]c(/C=C2\C(=O)Nc3ccccc32)c(C)c1CCC(=O)O`, in assay [2], the MEC worked out at 10 µM.
